Laboratory results: ChEMBL document CHEMBL4480423, “Mindapyrroles A-C, Pyoluteorin Analogues from a Shipworm-Associated Bacterium” (J Nat Prod, 2019)
Converted amounts (≈) assume the structure as drawn.

Columns and labels:
Bacillus subtilis = assay: Antibacterial activity against Bacillus subtilis ATCC 6051 after 24 hrs by resazurin dye based fluorescence assay; format: functional; conditions: ATCC 6051, 24 h
Enterococcus faecium = assay: Antibacterial activity against Enterococcus faecium ATCC […] after 24 hrs by resazurin dye based fluorescence assay; format: functional
Staphylococcus aureus [1] = assay: Antibacterial activity against Staphylococcus aureus ATCC 6538 after 24 hrs by resazurin dye based fluorescence assay; format: functional; conditions: ATCC 6538, 24 h
Staphylococcus aureus [2] = assay: Antibacterial activity against methicillin-resistant Staphylococcus aureus ATCC 43300 after 24 hrs by resazurin dye based fluorescence assay; format: functional; conditions: ATCC 43300, 24 h
[3] = test system: Staphylococcus epidermidis; assay: Antibacterial activity against Staphylococcus epidermidis ATCC 35984 after 24 hrs by resazurin dye based fluorescence assay; format: functional; conditions: ATCC 35984, 24 h
MDCK = assay: Cytotoxicity against MDCK cells assessed as reduction in cell viability after 72 hrs by MTT assay; format: cell-based; conditions: Canis lupus familiaris
Pseudomonas aeruginosa = assay: Antibacterial activity against Pseudomonas aeruginosa ATCC 15442 after 24 hrs by resazurin dye based fluorescence assay; format: functional; conditions: ATCC 15442, 24 h

Structure (SMILES) | MIC (Bacillus subtilis) [µg/mL] | MIC (Enterococcus faecium) [µg/mL] | MIC (Staphylococcus aureus [1]) [µg/mL] | MIC (Staphylococcus aureus [2]) [µg/mL] | MIC [3] [µg/mL] | IC50 (MDCK) [µM] | MIC (Pseudomonas aeruginosa) [µg/mL]
O=C(c1cc(Cl)c(Cl)[nH]1)c1c(O)ccc(Cc2ccc(O)c(C(=O)c3cc(Cl)c(Cl)[nH]3)c2O)c1O | 32 (≈ 57.5 µM) | 32 (≈ 57.5 µM) | 32 (≈ 57.5 µM) | > 32 | 32 (≈ 57.5 µM) | 44 | > 32
O=C(c1cc(Cl)c(Cl)[nH]1)c1c(O)ccc(Cc2cc(C(c3csc(-c4ccccc4O)n3)c3ccc(O)c(C(=O)c4cc(Cl)c(Cl)[nH]4)c3O)c(O)c(C(=O)c3cc(Cl)c(Cl)[nH]3)c2O)c1O (stereo not given) | 8 (≈ 7.88 µM) | > 32 | 4 (≈ 3.94 µM) | 8 (≈ 7.88 µM) | 2 (≈ 1.97 µM) | 28 | > 32
O=C(c1cc(Cl)c(Cl)[nH]1)c1c(O)ccc(C(c2csc(-c3ccccc3O)n2)c2ccc(O)c(C(=O)c3cc(Cl)c(Cl)[nH]3)c2O)c1O | 4 (≈ 5.47 µM) | 8 (≈ 10.9 µM) | 4 (≈ 5.47 µM) | 4 (≈ 5.47 µM) | 2 (≈ 2.73 µM) | 92 | 8 (≈ 10.9 µM)
O=C(N[C@H](CO)[C@H](O)c1ccc([N+](=O)[O-])cc1)C(Cl)Cl [CHLORAMPHENICOL] | – | 8 (≈ 24.8 µM) | – | – | – | – | –
CCn1cc(C(=O)O)c(=O)c2ccc(C)nc21 [NALIDIXIC ACID] | – | – | – | – | – | – | 4 (≈ 17.2 µM)
Cc1onc(-c2ccccc2)c1C(=O)N[C@@H]1C(=O)N2[C@@H]1SC(C)(C)[C@@H]2C(=O)O [OXACILLIN] | 1 (≈ 2.49 µM) | > 32 | 0.13 (≈ 0.324 µM) | 8 (≈ 19.9 µM) | 2 (≈ 4.98 µM) | – | –
O=C(c1cc(Cl)c(Cl)[nH]1)c1c(O)cccc1O [PYOLUTEORIN] | 8 (≈ 29.4 µM) | 8 (≈ 29.4 µM) | 4 (≈ 14.7 µM) | 8 (≈ 29.4 µM) | 4 (≈ 14.7 µM) | 4.8 | 16 (≈ 58.8 µM)
